# Measurements from US20090054471A1, “PYRIDOPYRAZOLOPYRIMIDINE COMPOUNDS AND THEIR USES AS ANTI-CANCER AND ANTI-DIABETE DRUGS” (Smithkline Beecham Corporation, priority 2005, published 2009).
# Experiments:
# Format in all cases: biochemical
# EGFR = molecular target: T1, EGFR (Homo sapiens, UniProt P00533); test: EGFR protein tyrosine kinase substrate phosphorylation assay (SPA); conditions: 10 μM ATP, 11-point dose-response 0.0001 to 10 μM
# T1 construct: made in house; host or cells: baculovirus expression system (insect cells)
# Protocol: (§1) Compounds of the present invention were tested for EGFR or ErbB-2 protein tyrosine kinase inhibitory activity in substrate phosphorylation assays using enzymes purified from a baculovirus expression system.
# (§2) The method measures the ability of the isolated enzyme to catalyse the transfer of the γ-phosphate from ATP onto tyrosine residues in a biotinylated synthetic peptide (biotin-Ahx-[…]-amide). Reactions were performed in 96 or 384 well polystyrene plates in a final volume of 20 or 45 μl. […] ATP per reaction, 2 μM peptide substrate, and 1 mM dithiothreitol. Reactions were initiated by adding 1 pmol (20 nM) per reaction of the indicated enzyme.
# (§3) Data Calculations—Peptide substrate phosphorylation reactions were performed as described above. The example compound indicated was serially diluted 1 to 3 and added to the reactions to produce an 11-point dose-response curve ranging from 0.0001 to 10 μM.
# Human GSK3b = molecular target: T2, Human GSK3b (Homo sapiens, UniProt P49841); test: GSK3b kinase scintillation proximity assay; conditions: 2.5 uM ATP, 11-point dose-response 0.0001 to 10 μM; read-out: GSK3
# T2 construct: 6-His (N); made in house; host or cells: E. coli
# Protocol: Human GSK3b was expressed in E. coli with a 6-His tag at the N-terminus. The protein was purified using metal-chelate affinity chromatography. The incorporation of radioactive phosphate into a biotinylated synthetic peptide, Biotin-Ahx-[…](PO3)YR-amide was detected using a scintillation proximity assay (SPA) method as described above. Assay conditions were as follows: 100 mM HEPES, pH 7.2, 10 mM MgCl2, 0.3 mg/mL heparin sulfate, 0.1 mg/mL BSA, 1 mM DTT, 2.5 uM ATP, 0.6 uCi/rxn ^33P-ATP, 1.2 ug/mL GSK-3b protein. The plates are incubated at room temperature for 19 minutes prior to the addition of SPA stop solution.
# as §3
# [1] = molecular target: T3, vascular endothelial growth factor receptor 2 (VEGFR2) (Homo sapiens, UniProt P35968); test: VEGFR2 kinase assay (homogeneous time-resolved fluorescence); conditions: 75 μM ATP, 11-point dose-response 0.0001 to 10 μM; read-out: VEGF-R
# T3 construct: The catalytic domains of vascular endothelial growth factor receptor 2 (VEGFR2) was expressed and purified; made in house
# Protocol: The catalytic domains of vascular endothelial growth factor receptor 2 (VEGFR2) was expressed and purified using methods similar to those described for ErbB-2 and EGFR. Kinase assays were performed as described above with the following modifications: VEGFR2 assays contained 10 nM enzyme, 100 mM HEPES, pH 7.5, 0.1 mg/ml bovine serum albumin, 0.1 mM dithiothreitol, 360 nM peptide A, 75 μM ATP, and 5 mM MgCl2. The reaction was allowed to proceed for 40 min. Product was detected using a homogeneous time-resolved fluorescence procedure (Park, Y.-W., Cummings, R. T., Wu, L., Zheng, S., Cameron, P. M., Woods, A., Zaller, D. M., Marcy, A. I., and Hermes, J. D. (1999) Anal. Biochem. 269, 94-104). Briefly, the reactions were quenched by adding 100 μl of 100 mM HEPES, pH 7.5, 100 mM EDTA, 45 nM streptavidin-linked allophycocyanin (Molecular Probes, Eugene, Oreg.), and 3 nM europium-conjugated anti-phosphotyrosine antibody (Wallac, Turku, Finland). The product was detected using a Victor plate reader (Wallac, Turku, Finland) with a time delay at 665 nm.
# as §3
# ErbB-2 = molecular target: T4, ErbB-2 (Homo sapiens, UniProt P04626); test: ErbB-2 protein tyrosine kinase substrate phosphorylation assay (SPA); conditions: 10 μM ATP, 11-point dose-response 0.0001 to 10 μM; read-out: ErbB2
# T4 construct: made in house; host or cells: baculovirus expression system (insect cells)
# Protocol: as §1, §2, §3
# T3 sequence (P35968 834-1162 limits assumed): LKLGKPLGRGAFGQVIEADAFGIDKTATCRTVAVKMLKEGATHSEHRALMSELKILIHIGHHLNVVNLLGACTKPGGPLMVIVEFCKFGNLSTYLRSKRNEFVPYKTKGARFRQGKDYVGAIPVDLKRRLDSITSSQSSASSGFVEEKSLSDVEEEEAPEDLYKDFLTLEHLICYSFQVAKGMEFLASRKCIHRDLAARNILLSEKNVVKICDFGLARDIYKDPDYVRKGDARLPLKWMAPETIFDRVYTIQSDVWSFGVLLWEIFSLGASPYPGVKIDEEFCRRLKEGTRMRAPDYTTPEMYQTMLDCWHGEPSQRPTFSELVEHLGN
# T4 sequence (P04626 676-1255 limits assumed): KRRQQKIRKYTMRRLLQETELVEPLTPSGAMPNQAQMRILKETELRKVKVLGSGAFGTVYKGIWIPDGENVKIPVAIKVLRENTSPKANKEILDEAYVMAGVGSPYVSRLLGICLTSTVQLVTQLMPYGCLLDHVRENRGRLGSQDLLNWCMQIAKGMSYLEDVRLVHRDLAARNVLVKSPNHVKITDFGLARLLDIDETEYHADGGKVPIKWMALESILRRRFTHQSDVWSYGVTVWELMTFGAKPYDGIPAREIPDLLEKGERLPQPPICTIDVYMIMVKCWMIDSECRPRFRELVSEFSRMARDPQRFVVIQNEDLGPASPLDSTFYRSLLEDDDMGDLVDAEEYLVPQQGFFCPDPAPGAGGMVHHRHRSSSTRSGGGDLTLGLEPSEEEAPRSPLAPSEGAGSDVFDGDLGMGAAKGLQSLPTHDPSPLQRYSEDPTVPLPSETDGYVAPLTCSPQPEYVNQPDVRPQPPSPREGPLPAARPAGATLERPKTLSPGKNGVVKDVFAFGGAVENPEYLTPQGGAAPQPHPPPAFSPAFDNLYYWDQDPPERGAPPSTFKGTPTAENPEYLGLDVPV
# T2 sequence (P49841 whole entry): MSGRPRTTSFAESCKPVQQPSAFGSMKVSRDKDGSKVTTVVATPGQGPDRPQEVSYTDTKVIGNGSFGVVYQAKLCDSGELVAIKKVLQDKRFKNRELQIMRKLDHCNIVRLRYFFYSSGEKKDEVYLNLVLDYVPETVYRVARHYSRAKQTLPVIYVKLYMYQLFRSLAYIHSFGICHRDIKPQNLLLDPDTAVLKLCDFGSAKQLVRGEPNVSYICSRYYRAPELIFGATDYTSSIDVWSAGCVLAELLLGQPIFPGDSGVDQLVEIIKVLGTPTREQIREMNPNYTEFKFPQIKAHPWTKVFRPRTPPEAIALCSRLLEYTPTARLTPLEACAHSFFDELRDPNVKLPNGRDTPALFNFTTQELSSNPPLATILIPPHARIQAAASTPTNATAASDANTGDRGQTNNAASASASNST
# T1 sequence (P00533 669-1210 limits assumed): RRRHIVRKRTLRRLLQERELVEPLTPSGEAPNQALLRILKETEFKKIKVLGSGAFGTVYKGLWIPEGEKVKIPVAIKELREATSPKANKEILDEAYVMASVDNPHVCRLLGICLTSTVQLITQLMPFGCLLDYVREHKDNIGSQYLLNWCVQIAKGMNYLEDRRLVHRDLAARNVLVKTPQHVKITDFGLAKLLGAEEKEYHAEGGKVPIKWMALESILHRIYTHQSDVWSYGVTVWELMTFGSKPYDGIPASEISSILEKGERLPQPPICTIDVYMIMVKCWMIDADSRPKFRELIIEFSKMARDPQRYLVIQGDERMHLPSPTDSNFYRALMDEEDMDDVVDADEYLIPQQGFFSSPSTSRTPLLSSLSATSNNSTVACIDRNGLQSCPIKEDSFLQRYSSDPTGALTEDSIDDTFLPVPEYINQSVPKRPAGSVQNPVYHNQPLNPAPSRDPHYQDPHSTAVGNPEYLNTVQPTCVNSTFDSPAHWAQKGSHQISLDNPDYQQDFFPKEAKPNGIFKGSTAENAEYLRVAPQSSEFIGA
Structure (SMILES),IC50 (EGFR) [µM],IC50 (Human GSK3b) [µM],IC50 [1] [µM],IC50 (ErbB-2) [µM]
"Fc1cccc(COc2ccc(Nc3ncnc4nn5ccccc5c34)cc2Cl)c1 [Example 5, N-(3-chloro-4-{[(3-fluorophenyl)methyl]oxy}phenyl)-pyrido[1′,2′:1,5]pyrazolo[3,4-d]pyrimidin-4-amine]",,> 10,> 10,
"Clc1cc(Nc2ncnc3nn4ccccc4c23)ccc1OCc1ccccc1 [Example 6, N-{3-chloro-4-[(phenylmethyl)oxy]phenyl}pyrido[1′,2′:1,5]pyrazolo[3,4-d]pyrimidin-4-amine]",< 0.1,> 10,> 10,0.1 to 1
"c1ccc(Cc2nc3ccc(Nc4ncnc5nn6ccccc6c45)cc3[nH]2)cc1 [Example 7, N-[2-(phenylmethyl)-1H-benzimidazol-5-yl]pyrido[1′,2′:1,5]pyrazolo-[3,4-d]pyrimidin-4-amine]",1 to 10,> 10,> 10,1 to 10
"O=C(Nc1cccc(C(F)(F)F)c1)Nc1ncnc2nn3ccccc3c12 [Example 9, N-pyrido[1′,2′:1,5]pyrazolo[3,4-d]pyrimidin-4-yl-N′-[3-(trifluoromethyl)phenyl]urea]",> 10,0.1 to 1,0.1 to 1,> 10
"O=C(Nc1ccc(C(F)(F)F)cc1)Nc1ncnc2nn3ccccc3c12 [Example 12, N-pyrido[1′,2′:1,5]pyrazolo[3,4-d]pyrimidin-4-yl-N′-[4-(trifluoromethyl)phenyl]urea]",> 10,1 to 10,1 to 10,> 10

# Other lines, results leading:
IC50 (EGFR) [µM],IC50 (Human GSK3b) [µM],IC50 [1] [µM],IC50 (ErbB-2) [µM],Structure (SMILES)
> 10,> 10,> 10,> 10,"Nc1ncnc2nn3ccccc3c12 [Example 1, pyrido[1′,2′:1,5]pyrazolo[3,4-d]pyrimidin-4-amine]"
,> 10,> 10,,"Fc1ccc(Nc2ncnc3nn4ccccc4c23)cc1Cl [Example 4, N-(3-chloro-4-fluorophenyl)pyrido[1′,2′:1,5]pyrazolo[3,4-d]pyrimidin-4-amine]"
> 10,0.1 to 1,0.1 to 1,> 10,"N#Cc1cccc(NC(=O)Nc2ncnc3nn4ccccc4c23)c1 [Example 8, N-(3-cyanophenyl)-N′-pyrido[1′,2′:1,5]pyrazolo[3,4-d]pyrimidin-4-ylurea]"
> 10,0.1 to 1,> 10,> 10,"O=C(Nc1cccc([N+](=O)[O-])c1)Nc1ncnc2nn3ccccc3c12 [Example 10, N-(3-nitrophenyl)-N′-pyrido[1′,2′:1,5]pyrazolo[3,4-d]pyrimidin-4-ylurea]"
> 10,1 to 10,1 to 10,> 10,"O=C(Nc1ccc(Br)cc1)Nc1ncnc2nn3ccccc3c12 [Example 11, N-(4-bromophenyl)-N′-pyrido[1′,2′:1,5]pyrazolo[3,4-d]pyrimidin-4-ylurea]"
> 10,> 10,0.1 to 1,> 10,"O=C(Nc1ccc(F)cc1)Nc1ncnc2nn3ccccc3c12 [Example 13, N-(4-fluorophenyl)-N′-pyrido[1′,2′:1,5]pyrazolo[3,4-d]pyrimidin-4-ylurea]"
1 to 10,1 to 10,> 10,> 10,"C(=NNc1ncnc2nn3ccccc3c12)c1c[nH]c2ccccc12 [Example 14, 1H-indole-3-carbaldehyde pyrido[1′,2′:1,5]pyrazolo[3,4-d]pyrimidin-4-ylhydrazone]"
